Experimental data reported in patent US20200360391A1, “Medicinal Composition for Treating Intractable Heart Disease” (Osaka University, priority 2016, published 2020).
Like-named read-outs stand apart in the source and are kept apart here.

How the values were obtained:
[1] = test system: spontaneous dilated cardiomyopathy (J2N-k) hamster model; assay: Spontaneous dilated cardiomyopathy (J2N-k) hamster model, 8-week administration from 20 weeks of age (Tests 1-3): echocardiography, body weight; conditions: for Cardiac function (EF, FS %) actual measured value and/or amount of change compared with control, 8 W value / Cardiac function (EF, FS %) actual measured value or change rate compared with control, 4 W value / Cardiac function improvement effect: Test 3, clinical dose; for Cardiac function improvement effect: summary; for Minimal effective dose (screening 2): mg/kg twice per day, oral preparation
Description: The doses of pharmaceutical products were determined based on the no-observed-adverse-effect levels in a long-term toxicity study using rats. δ-Glycan-deficient spontaneous dilated cardiomyopathy (J2N-k) male hamsters (Japan SLC, Inc.) were delivered at 18 weeks of age. After a 2-week quarantine/acclimation, echocardiography was performed.
Each of the pharmaceutical products (A to K and O) was individually administered twice daily (at an interval of 8 hours or more) by oral gavage, and echocardiography was performed after 4 and 8 weeks (before dissection). Differences from the value before the start of administration (at the time of grouping) (amount of change: Δ) in each group were examined, and the cardiac function (EF value, FS %, etc.) was compared with that in the vehicle group (Group 1). Moreover, the heart was removed […] after the start of administration, and electron microscopy and RNA protein measurement were performed. Specimens for immunopathology were also collected and evaluated.
Each pharmaceutical product was individually suspended in 0.5% CMC-Na (sodium carboxymethylcellulose; Wako Pure Chemical Industries, Ltd.) before use, and administered. […] To Group 1 (control), 0.5% CNC-Na (vehicle) was administered.
Each pharmaceutical product was individually suspended in 0.5% CMC-Na (sodium carboxymethylcellulose; Wako Pure Chemical Industries, Ltd.) before use, and administered. Test substance G was suspended in distilled water before use, and administered.
Reason the doses were set (assuming that the adult body weight was 60 kg, the same amounts as the maximum clinical doses were set) • 1) The clinical dose of C (ozagrel; OZ) was 200 mg twice per day. The dose was thus set to 3.3 mg/kg twice per day. • 2) The clinical dose of D (cilostazol; CS) was 100 mg twice per day. The dose was thus set to 1.7 mg/kg twice per day. • 3) The clinical dose of E (pirfenidone; PF) was 600 mg three times per day, i.e., 1800 mg/day in total. The dose was thus set to 15 mg/kg twice per day. • 4) The clinical dose of G (nintedanib sulfonate; OB) was 150 mg twice per day. The dose was thus set to 2.5 mg/kg twice per day. • 5) The clinical dose of P (carvedilol; CV) was 10 mg twice per day. The dose was thus set to 0.17 mg/kg twice per day. • 6) Preparation 2 (PLGA⋅MS preparation of camostat; B⋅MS): the clinical dose of active substance camostat was 200 mg three times per day, i.e., 600 mg/day in total; thus, intermittent subcutaneous administration at a daily dose of 10 mg/kg once every 4 weeks, twice in total was set. The dose was 1/28 of the total oral dose amount.
The dose volume in oral administration was 5 mL/kg (the amount of liquid to be administered to each animal was calculated based on the most recent body weight), and administered by oral gavage using a polypropylene disposable syringe and a rat stomach tube.
The administration period of each pharmaceutical product was 8 weeks.

[2] = test system: rats; conditions: cited from earlier work; for No-observed-adverse-effect level: rats
[3] = test system: mouse model of pulmonary embolism; conditions: oral pre-administration, cited from earlier work
[4] = cited from earlier work; for Cases with side effects (including laboratory test value abnormality): share of cases evaluated for safety
[5] = test system: rats; assay: Repeated oral administration toxicity study in rats (dose-setting basis); conditions: mg/kg twice per day, oral preparation
Description: The dose-setting basis for the doses of the test substances used in pharmacological tests is as described below.

[6] = test system: rat coronary artery complete ischemia model; assay: Model of ischemia (MI) by rat coronary artery complete ligation (Tests 1 and 2): echocardiography, body weight; conditions: for Action on left ventricular systolic function: MI Test 1, 28-day repeated oral administration b.i.d., NOAEL-based doses; for Body weight / % FS: value of change compared with the value on Day 1 / EF: value of change compared with the value on Day 1: MI Test 1, NOAEL doses, mean ± S.D.
[7] = test system: spontaneous dilated cardiomyopathy J2N-k baby hamsters; assay: J2N-k baby hamsters (Test 4): administration alone or in combination, echocardiography, body weight; format: in vivo, hamster; conditions: for % FS / EF (%) / value of change in E.F. compared with E.F. at 0 W / value of change in F.S. compared with F.S. at 0 W: Test 4, dose O 0.17, C 3.3, E 15, orally twice daily, mean ± S.D.
Description: δ-Glycan-deficient spontaneous dilated cardiomyopathy (J2N-k) male hamsters (Japan SLC, Inc.) were delivered at 4 weeks of age. After a 1-week quarantine/acclimation, echocardiography was performed. The hamsters were grouped by stratified random assignment based on the EF values and the body weights so that each administration group was equalized.
Each test substance was individually administered twice daily (at an interval of 8 hours or more) by oral gavage, and echocardiography was performed 4 and 8 weeks after the start of administration (before dissection). Differences from the value before the start of administration (at the time of grouping) (amount of change: A) in each group were examined, and the cardiac function (EF value, FS %, etc.) was compared with that in the vehicle group (Group 1).
The doses were set according to the dose-setting basis in Test 3, and similarly orally administered twice daily. Effects of administration of combinations of two or three of carvedilol, which is a β-blocker widely used clinically, and ozagrel and/or pirfenidone were examined.

[8] = test system: BLM-induced mouse pulmonary fibrosis model; conditions: BLM-induced mouse pulmonary fibrosis model; cited from earlier work
[9] = Test 1, p.o. b.i.d., NOAEL-based dose

## O=C1CCc2cc(OCCCCc3nnnn3C3CCCCC3)ccc2N1 [Compound D, Cilostazol]
[1]; Test 1, p.o. b.i.d.
  LVIDd 4 W: 7.1 mm
  LVIDd 8 W: 7.5 mm
  LVIDs 4 W: 5.9 mm
  LVIDs 8 W: 6.3 mm
[1]; [9]
  Body weight 1 W: 112.6 g
  Body weight 2 W: 114.6 g
  Body weight 3 W: 116.6 g
  Body weight 4 W: 118.0 g
  Body weight 5 W: 118.5 g
[1]
  Cardiac function (EF, FS %) actual measured value and/or amount of change compared with control, 8 W value: significant cardiac function improvement effect
  Cardiac function (EF, FS %) actual measured value or change rate compared with control, 4 W value: significant cardiac function improvement effect
  Cardiac function improvement effect: cardiac function improvement effect was observed
  Minimal effective dose (screening 2): 1.7 mg/kg
[2]; 13 weeks / 3 months
  No-observed-adverse-effect level: 30 mg/kg
[3]; ADP-induced model
  Dose significantly inhibiting pulmonary embolus death: 30 mg/kg
[3]; collagen-induced model
  Dose significantly inhibiting pulmonary embolus death: 10 mg/kg
[4]; human, in vivo
  Diarrhea cases: 0.3%
  Dizziness: 0.5%
  Headache (headache/heavy-headedness) cases: 3.4%
  Nausea cases (cilostazol: nausea/vomiting): 0.3%
  Palpitations cases: 0.7%
[4]
  Cases with side effects (including laboratory test value abnormality): 6.3%
[5]
  Maximum no-observed-adverse-effect level (screening 1): 30 mg/kg
[6]
  Action on left ventricular systolic function: suppression action on the deterioration of left ventricular systolic function
[6]; MI Test 1, Day 7
  Cardiac function test (% FS): actual measured EF value compared with control: significantly higher
  Cardiac function test (% FS): amount of change in the EF value compared with control: not significantly higher
  EF actual measured value compared with control: significantly higher
  EF amount of change compared with control: not significantly higher
[6]; MI Test 1, Day 29
  Cardiac function test (% FS): amount of change compared with control: significantly higher
[6]; 1 Day (grouping)
  Body weight: 232.4 ± 4.9 g
[6]; 7 Day
  % FS: value of change compared with the value on Day 1: -1%
  EF: value of change compared with the value on Day 1: -1%
[6]; 14 Day
  % FS: value of change compared with the value on Day 1: -2%
  EF: value of change compared with the value on Day 1: -3%
[6]; 29 Day
  % FS: value of change compared with the value on Day 1: -5%
  EF: value of change compared with the value on Day 1: -9%

## Cc1ccc(=O)n(-c2ccccc2)c1 [Compound E, Pirfenidone]
[1]; Test 1, at grouping
  Body weight 0 W: 116.1 g
[1]; Test 1, p.o. b.i.d.
  LVIDd 4 W: 6.9 mm
  LVIDd 8 W: 7.3 mm
  LVIDs 4 W: 5.7 mm
  LVIDs 8 W: 6.1 mm
[1]; [9]
  Body weight 1 W: 116.3 g
  Body weight 2 W: 118.3 g
  Body weight 3 W: 119.5 g
  Body weight 4 W: 121.4 g
[1]; Test 1, p.o. b.i.d., listed as pirfenidone
  LVIDs 8 W: significantly lower
[1]
  Cardiac function (EF, FS %) actual measured value and/or amount of change compared with control, 8 W value: significant cardiac function improvement effect
  Cardiac function (EF, FS %) actual measured value or change rate compared with control, 4 W value: significant cardiac function improvement effect
  Cardiac function improvement effect: cardiac function improvement effect was observed
  Minimal effective dose (screening 2): 15 mg/kg
[7]; Test 4, at grouping
  Body weight 0 W: 71.7 g
[7]; 0 W (start of administration)
  % FS: 39.0 ± 3.0%
  EF (%): 77.1 ± 3.4%
[7]; 4 W
  % FS: 34.1 ± 1.9%
  EF (%): 71.3 ± 2.4%
  value of change in E.F. compared with E.F. at 0 W: <−5.8 ± 1.9> %
  value of change in F.S. compared with F.S. at 0 W: <−4.8 ± 1.7> %
[7]; 8 W
  % FS: 29.7 ± 1.8%
  EF (%): 65.2 ± 2.6%
  value of change in E.F. compared with E.F. at 0 W: <−11.9 ± 2.8> %
  value of change in F.S. compared with F.S. at 0 W: <−9.2 ± 2.4> %
[2]; 1 month
  No-observed-adverse-effect level: 100 mg/kg
[2]; repeated oral administration in rats, duration per compound
  Dose at which toxic findings were observed: ≥ 100 mg/kg
[8]
  Minimal effective dose for antifibrosis: 30 mg/kg/day
[4]; human, in vivo
  Abdominal / stomach / gastric discomfort cases: 14.0%
  Abnormal fluctuation in laboratory test values: 45.3%
  Anorexia cases: 23.0%
  Light-hypersensitivity cases: 51.7%
  Nausea cases (cilostazol: nausea/vomiting): 12.1%
  γ-GTP elevation cases: 20.0%
[4]
  Cases with side effects (including laboratory test value abnormality): 87.9%
[5]
  Maximum no-observed-adverse-effect level (screening 1): 50 mg/kg
[6]
  Action on left ventricular systolic function: suppression action on the deterioration of left ventricular systolic function
[6]; 1 Day (grouping)
  Body weight: 232.0 ± 3.9 g
[6]; 7 Day
  % FS: value of change compared with the value on Day 1: 0%
  Body weight: 236.7 ± 5.3 g
  EF: value of change compared with the value on Day 1: -1%
[6]; 14 Day
  % FS: value of change compared with the value on Day 1: -2%
  Body weight: 257.7 ± 10.1 g
  EF: value of change compared with the value on Day 1: -4%
[6]; 21 Day
  Body weight: 272.4 ± 10.5 g
[6]; 29 Day
  % FS: value of change compared with the value on Day 1: -4%
  Body weight: 287.5 ± 16.2 g
  EF: value of change compared with the value on Day 1: -8%
